Test results published in ChEMBL document CHEMBL3045481, “Insecticide-induced resurgence of the whitebacked planthopper Sogatella furcifera (Horvath) (Hemiptera: Delphacidae) on rice varieties with different levels of resistance” (Crop Prot, 2011).

Columns and labels:
[1] = tested on: Oryza sativa; assay: Effect on total sugar level in Sogatella furcifera-sensitive Oryza sativa (rice) plant ARC6248 leaf sheath measured per gram of dry weight at 0.030% concentration (reference value: 25.98 mg/g dry wt); type: ADME, organism-based; settings: in vivo
[2] = tested on: Oryza sativa; assay: Effect on total sugar level in Sogatella furcifera-resistanct Oryza sativa (rice) plant PR116 leaf sheath measured per gram of dry weight at 0.030% concentration (reference value: 30.27 mg/g dry wt); type: ADME, organism-based; settings: in vivo
[3] = tested on: Sogatella furcifera; assay: Insecticidal activity against Sogatella furcifera on insect-sensitive rice plant ARC6248 assessed as growth index at 0.030% concentration (reference value: 2.38%); type: functional
[4] = tested on: Sogatella furcifera; assay: Insecticidal activity against Sogatella furcifera on insect-resistanct rice plant PR116 assessed as growth index at 0.030% concentration (reference value: 6.02%); type: functional
[5] = tested on: Sogatella furcifera; assay: Insecticidal activity against Sogatella furcifera on insect-sensitive rice plant ARC6248 assessed as nymphal duration at 0.030% concentration (reference value: 14.48 days); type: functional
[6] = tested on: Sogatella furcifera; assay: Insecticidal activity against Sogatella furcifera on insect-resistanct rice plant PR116 assessed as nymphal duration at 0.030% concentration (reference value: 11.75 days); type: functional
[7] = tested on: Sogatella furcifera; assay: Insecticidal activity against Sogatella furcifera on insect-sensitive rice plant ARC6248 assessed as resurgence ratio at 0.030% concentration; type: functional
[8] = tested on: Sogatella furcifera; assay: Insecticidal activity against Sogatella furcifera on insect-resistanct rice plant PR116 assessed as resurgence ratio at 0.030% concentration; type: functional
[9] = tested on: Oryza sativa; assay: Effect on total amino acids level in Sogatella furcifera-sensitive Oryza sativa (rice) plant ARC6248 leaf sheath measured per gram of dry weight at 0.030% concentration (reference value: 2.11 mg/g fresh wt); type: ADME, organism-based; settings: in vivo
[10] = tested on: Oryza sativa; assay: Effect on total amino acids level in Sogatella furcifera-sensitive Oryza sativa (rice) plant ARC6248 leaf blade measured per gram of dry weight at 0.030% concentration (reference value: 3.54 mg/g fresh wt); type: ADME, organism-based; settings: in vivo
[11] = tested on: Oryza sativa; assay: Effect on total amino acids level in Sogatella furcifera-resistanct Oryza sativa (rice) plant PR116 leaf blade measured per gram of dry weight at 0.030% concentration (reference value: 3.91 mg/g […]); type: ADME, organism-based; settings: in vivo
[12] = tested on: Oryza sativa; assay: Effect on total protein level in Sogatella furcifera-sensitive Oryza sativa (rice) plant ARC6248 leaf blade measured per gram of dry weight at 0.030% concentration (reference value: 17.67 mg/g […]); type: ADME, organism-based; settings: in vivo
[13] = tested on: Oryza sativa; assay: Effect on total phenols level in Sogatella furcifera-resistanct Oryza sativa (rice) plant PR116 leaf blade measured per gram of dry weight at 0.030% concentration (reference value: 8.08 mg/g dry wt); type: ADME, organism-based; settings: in vivo
[14] = tested on: Oryza sativa; assay: Effect on reducing sugar level in Sogatella furcifera-sensitive Oryza sativa (rice) plant ARC6248 leaf blade measured per gram of dry weight at 0.030% concentration (reference value: 8.37 mg/g dry wt); type: ADME, organism-based; settings: in vivo
[15] = tested on: Oryza sativa; assay: Effect on total protein level in Sogatella furcifera-resistanct Oryza sativa (rice) plant PR116 leaf blade measured per gram of dry weight at 0.030% concentration (reference value: 21.67 mg/g fresh wt); type: ADME, organism-based; settings: in vivo
[16] = tested on: Oryza sativa; assay: Effect on total phenols level in Sogatella furcifera-sensitive Oryza sativa (rice) plant ARC6248 leaf blade measured per gram of dry weight at 0.030% concentration (reference value: 17.08 mg/g dry wt); type: ADME, organism-based; settings: in vivo
[17] = tested on: Oryza sativa; assay: Effect on reducing sugar level in Sogatella furcifera-resistanct Oryza sativa (rice) plant PR116 leaf blade measured per gram of dry weight at 0.030% concentration (reference value: 9.35 mg/g dry wt); type: ADME, organism-based; settings: in vivo
[18] = tested on: Oryza sativa; assay: Effect on total sugar level in Sogatella furcifera-sensitive Oryza sativa (rice) plant ARC6248 leaf blade measured per gram of dry weight at 0.030% concentration (reference value: 34.05 mg/g dry wt); type: ADME, organism-based; settings: in vivo
[19] = tested on: Oryza sativa; assay: Effect on total sugar level in Sogatella furcifera-resistanct Oryza sativa (rice) plant PR116 leaf blade measured per gram of dry weight at 0.030% concentration (reference value: 36.16 mg/g dry wt); type: ADME, organism-based; settings: in vivo
[20] = tested on: Oryza sativa; assay: Effect on total amino acids level in Sogatella furcifera-resistanct Oryza sativa (rice) plant PR116 leaf sheath measured per gram of dry weight at 0.030% concentration (reference value: 2.58 mg/g […]); type: ADME, organism-based; settings: in vivo
[21] = tested on: Oryza sativa; assay: Effect on total protein level in Sogatella furcifera-sensitive Oryza sativa (rice) plant ARC6248 leaf sheath measured per gram of dry weight at 0.030% concentration (reference value: 6.11 mg/g […]); type: ADME, organism-based; settings: in vivo
[22] = tested on: Oryza sativa; assay: Effect on total protein level in Sogatella furcifera-resistanct Oryza sativa (rice) plant PR116 leaf sheath measured per gram of dry weight at 0.030% concentration (reference value: 7.06 mg/g fresh wt); type: ADME, organism-based; settings: in vivo
[23] = tested on: Oryza sativa; assay: Effect on total phenols level in Sogatella furcifera-sensitive Oryza sativa (rice) plant ARC6248 leaf sheath measured per gram of dry weight at 0.030% concentration (reference value: 12.75 mg/g dry wt); type: ADME, organism-based; settings: in vivo
[24] = tested on: Sogatella furcifera; assay: Insecticidal activity against Sogatella furcifera on insect-sensitive rice plant ARC6248 assessed as nymphal survival at 0.030% concentration (reference value: 34.17%); type: functional
[25] = tested on: Sogatella furcifera; assay: Insecticidal activity against Sogatella furcifera on insect-resistanct rice plant PR116 assessed as nymphal survival at 0.030% concentration (reference value: 70.28%); type: functional
[26] = tested on: Oryza sativa; assay: Effect on total phenols level in Sogatella furcifera-resistanct Oryza sativa (rice) plant PR116 leaf sheath measured per gram of dry weight at 0.030% concentration (reference value: 5.75 mg/g dry wt); type: ADME, organism-based; settings: in vivo
[27] = tested on: Oryza sativa; assay: Effect on reducing sugar level in Sogatella furcifera-sensitive Oryza sativa (rice) plant ARC6248 leaf sheath measured per gram of dry weight at 0.030% concentration (reference value: 6.41 mg/g dry wt); type: ADME, organism-based; settings: in vivo
[28] = tested on: Oryza sativa; assay: Effect on reducing sugar level in Sogatella furcifera-resistanct Oryza sativa (rice) plant PR116 leaf sheath measured per gram of dry weight at 0.030% concentration (reference value: 7.50 mg/g dry wt); type: ADME, organism-based; settings: in vivo

## COP(=S)(OC)Oc1ccc([N+](=O)[O-])cc1 [METHYL PARATHIONE]
[1]
  Activity: 33.21 mg
[2]
  Activity: 33.48 mg
[3]
  growth inhibition (GI): 2.87%
[4]
  growth inhibition (GI): 6.76%
[5]
  Time: 14.35 days
[6]
  Time: 11.57 days
[7]
  Ratio: 1.26
[8]
  Ratio: 1.69
[9]
  Activity: 2.86 mg
[10]
  Activity: 4.04 mg
[11]
  Activity: 4.53 mg
[12]
  Activity: 21.17 mg
[13]
  Activity: 7.5 mg
[14]
  Activity: 10.54 mg
[15]
  Activity: 23.33 mg
[16]
  Activity: 16.08 mg
[17]
  Activity: 14.89 mg
[18]
  Activity: 39.37 mg
[19]
  Activity: 38.3 mg
[20]
  Activity: 3.64 mg
[21]
  Activity: 8.33 mg
[22]
  Activity: 8.67 mg
[23]
  Activity: 11.08 mg
[24]
  Survival: 40.83%
[25]
  Survival: 77.78%
[26]
  Activity: 5.58 mg
[27]
  Activity: 9.89 mg
[28]
  Activity: 11.63 mg
